According to patent publication US20250352520A1, “USE OF DEXPRAMIPEXOLE FOR THE TREATMENT OF EOSINOPHILIC COPD” (Areteia Therapeutics, Inc., priority 2024, published 2025):
Where two headings read alike, the source gives them in different places.

Details: Week 16

## CCCN[C@@H]1CCc2nc(N)sc2C1 [Dexpramipexole, (6R)-2-amino-4,5,6,7-tetrahydro-6-(propylamino)benzothiazole]
<50% AEC reduction at Week 16
  Pre-BD FEF25-75 % change from baseline, Max: −3%
  Pre-BD FEF25-75 % change from baseline, Mean ± SD: −14.5 ± 19.68%
  Pre-BD FEF25-75 % change from baseline, Median: −5.5%
  Pre-BD FEF25-75 % change from baseline, Min: −44%
  Pre-BD FEF25-75 % change from baseline, Q1: −25%
  Pre-BD FEF25-75 % change from baseline, Q3: −4%
  Pre-BD FEF25-75 Observed, Max: 780 mL/s
  Pre-BD FEF25-75 Observed, Mean ± SD: 505.0 ± 266.15 mL/s
  Pre-BD FEF25-75 Observed, Median: 505.0 mL/s
  Pre-BD FEF25-75 Observed, Min: 230 mL/s
  Pre-BD FEF25-75 Observed, Q1: 280 mL/s
  Pre-BD FEF25-75 Observed, Q3: 730 mL/s
  Pre-BD FEF25-75 change from baseline, Max: -10 mL/s
  Pre-BD FEF25-75 change from baseline, Mean ± SD: -170.0 ± 293.94 mL/s
  Pre-BD FEF25-75 change from baseline, Median: -30.0 mL/s
  Pre-BD FEF25-75 change from baseline, Min: -610 mL/s
  Pre-BD FEF25-75 change from baseline, Q1: -330 mL/s
  Pre-BD FEF25-75 change from baseline, Q3: -10 mL/s
  Pre-BD FEV1 % change from baseline, Max: 3%
  Pre-BD FEV1 % change from baseline, Mean ± SD: −11.4 ± 15.14%
  Pre-BD FEV1 % change from baseline, Median: −8.5%
  Pre-BD FEV1 % change from baseline, Min: −32%
  Pre-BD FEV1 % change from baseline, Q1: −22%
  Pre-BD FEV1 % change from baseline, Q3: 0%
  Pre-BD FEV1 Observed, Max: 1660 mL
  Pre-BD FEV1 Observed, Mean ± SD: 1280.0 ± 399.67 mL
  Pre-BD FEV1 Observed, Median: 1370.0 mL
  Pre-BD FEV1 Observed, Min: 720 mL
  Pre-BD FEV1 Observed, Q1: 1020 mL
  Pre-BD FEV1 Observed, Q3: 1540 mL
  Pre-BD FEV1 change from baseline, Max: 50 mL
  Pre-BD FEV1 change from baseline, Mean ± SD: -192.5 ± 318.58 mL
  Pre-BD FEV1 change from baseline, Median: -80.0 mL
  Pre-BD FEV1 change from baseline, Min: -660 mL
  Pre-BD FEV1 change from baseline, Q1: -385 mL
  Pre-BD FEV1 change from baseline, Q3: 0 mL
  Pre-BD FVC % change from baseline, Max: 3%
  Pre-BD FVC % change from baseline, Mean ± SD: −3.2 ± 7.22%
  Pre-BD FVC % change from baseline, Median: −2.0%
  Pre-BD FVC % change from baseline, Min: −12%
  Pre-BD FVC % change from baseline, Q1: −9%
  Pre-BD FVC % change from baseline, Q3: 3%
  Pre-BD FVC Observed, Max: 3380 mL
  Pre-BD FVC Observed, Mean ± SD: 2900.0 ± 503.26 mL
  Pre-BD FVC Observed, Median: 2985.0 mL
  Pre-BD FVC Observed, Min: 2250 mL
  Pre-BD FVC Observed, Q1: 2510 mL
  Pre-BD FVC Observed, Q3: 3290 mL
  Pre-BD FVC change from baseline, Max: 80 mL
  Pre-BD FVC change from baseline, Mean ± SD: -95.0 ± 203.55 mL
  Pre-BD FVC change from baseline, Median: -80.0 mL
  Pre-BD FVC change from baseline, Min: -300 mL
  Pre-BD FVC change from baseline, Q1: -270 mL
  Pre-BD FVC change from baseline, Q3: 80 mL
  Pre-BD Peak Flow % change from baseline, Max: 930%
  Pre-BD Peak Flow % change from baseline, Mean ± SD: 236.0 ± 462.72%
  Pre-BD Peak Flow % change from baseline, Median: 8.1%
  Pre-BD Peak Flow % change from baseline, Min: −2%
  Pre-BD Peak Flow % change from baseline, Q1: 1%
  Pre-BD Peak Flow % change from baseline, Q3: 471%
  Pre-BD Peak Flow Observed, Max: 412 L/min
  Pre-BD Peak Flow Observed, Mean ± SD: 258.0 ± 118.14 L/min
  Pre-BD Peak Flow Observed, Median: 248.0 L/min
  Pre-BD Peak Flow Observed, Min: 124 L/min
  Pre-BD Peak Flow Observed, Q1: 186 L/min
  Pre-BD Peak Flow Observed, Q3: 331 L/min
  Pre-BD Peak Flow change from baseline, Max: 372 L/min
  Pre-BD Peak Flow change from baseline, Mean ± SD: 101.5 ± 180.70 L/min
  Pre-BD Peak Flow change from baseline, Median: 18.5 L/min
  Pre-BD Peak Flow change from baseline, Min: -3 L/min
  Pre-BD Peak Flow change from baseline, Q1: 5 L/min
  Pre-BD Peak Flow change from baseline, Q3: 199 L/min
>=50% AEC reduction at Week 16
  Pre-BD FEF25-75 % change from baseline, Max: 27%
  Pre-BD FEF25-75 % change from baseline, Mean ± SD: 13.6 ± 13.59%
  Pre-BD FEF25-75 % change from baseline, Median: 13.7%
  Pre-BD FEF25-75 % change from baseline, Min: 0%
  Pre-BD FEF25-75 % change from baseline, Q1: 0%
  Pre-BD FEF25-75 % change from baseline, Q3: 27%
  Pre-BD FEF25-75 Observed, Max: 1170 mL/s
  Pre-BD FEF25-75 Observed, Mean ± SD: 736.7 ± 486.76 mL/s
  Pre-BD FEF25-75 Observed, Median: 830.0 mL/s
  Pre-BD FEF25-75 Observed, Min: 210 mL/s
  Pre-BD FEF25-75 Observed, Q1: 210 mL/s
  Pre-BD FEF25-75 Observed, Q3: 1170 mL/s
  Pre-BD FEF25-75 change from baseline, Max: 250 mL/s
  Pre-BD FEF25-75 change from baseline, Mean ± SD: 116.7 ± 125.83 mL/s
  Pre-BD FEF25-75 change from baseline, Median: 100.0 mL/s
  Pre-BD FEF25-75 change from baseline, Min: 0 mL/s
  Pre-BD FEF25-75 change from baseline, Q1: 0 mL/s
  Pre-BD FEF25-75 change from baseline, Q3: 250 mL/s
  Pre-BD FEV1 % change from baseline, Max: 52%
  Pre-BD FEV1 % change from baseline, Mean ± SD: 22.5 ± 25.80%
  Pre-BD FEV1 % change from baseline, Median: 8.3%
  Pre-BD FEV1 % change from baseline, Min: 7%
  Pre-BD FEV1 % change from baseline, Q1: 7%
  Pre-BD FEV1 % change from baseline, Q3: 52%
  Pre-BD FEV1 Observed, Max: 1980 mL
  Pre-BD FEV1 Observed, Mean ± SD: 1523.3 ± 657.29 mL
  Pre-BD FEV1 Observed, Median: 1820.0 mL
  Pre-BD FEV1 Observed, Min: 770 mL
  Pre-BD FEV1 Observed, Q1: 770 mL
  Pre-BD FEV1 Observed, Q3: 1980 mL
  Pre-BD FEV1 change from baseline, Max: 680 mL
  Pre-BD FEV1 change from baseline, Mean ± SD: 290.0 ± 340.73 mL
  Pre-BD FEV1 change from baseline, Median: 140.0 mL
  Pre-BD FEV1 change from baseline, Min: 50 mL
  Pre-BD FEV1 change from baseline, Q1: 50 mL
  Pre-BD FEV1 change from baseline, Q3: 680 mL
  Pre-BD FVC % change from baseline, Max: 29%
  Pre-BD FVC % change from baseline, Mean ± SD: 13.7 ± 13.73%
  Pre-BD FVC % change from baseline, Median: 10.0%
  Pre-BD FVC % change from baseline, Min: 2%
  Pre-BD FVC % change from baseline, Q1: 2%
  Pre-BD FVC % change from baseline, Q3: 29%
  Pre-BD FVC Observed, Max: 3250 mL
  Pre-BD FVC Observed, Mean ± SD: 2743.3 ± 470.57 mL
  Pre-BD FVC Observed, Median: 2660.0 mL
  Pre-BD FVC Observed, Min: 2320 mL
  Pre-BD FVC Observed, Q1: 2320 mL
  Pre-BD FVC Observed, Q3: 3250 mL
  Pre-BD FVC change from baseline, Max: 730 mL
  Pre-BD FVC change from baseline, Mean ± SD: 333.3 ± 351.62 mL
  Pre-BD FVC change from baseline, Median: 210.0 mL
  Pre-BD FVC change from baseline, Min: 60 mL
  Pre-BD FVC change from baseline, Q1: 60 mL
  Pre-BD FVC change from baseline, Q3: 730 mL
  Pre-BD Peak Flow % change from baseline, Max: 115%
  Pre-BD Peak Flow % change from baseline, Mean ± SD: 50.4 ± 56.32%
  Pre-BD Peak Flow % change from baseline, Median: 21.5%
  Pre-BD Peak Flow % change from baseline, Min: 14%
  Pre-BD Peak Flow % change from baseline, Q1: 14%
  Pre-BD Peak Flow % change from baseline, Q3: 115%
  Pre-BD Peak Flow Observed, Max: 338 L/min
  Pre-BD Peak Flow Observed, Mean ± SD: 240.0 ± 88.20 L/min
  Pre-BD Peak Flow Observed, Median: 215.0 L/min
  Pre-BD Peak Flow Observed, Min: 167 L/min
  Pre-BD Peak Flow Observed, Q1: 167 L/min
  Pre-BD Peak Flow Observed, Q3: 338 L/min
  Pre-BD Peak Flow change from baseline, Max: 181 L/min
  Pre-BD Peak Flow change from baseline, Mean ± SD: 80.0 ± 87.88 L/min
  Pre-BD Peak Flow change from baseline, Median: 38.0 L/min
  Pre-BD Peak Flow change from baseline, Min: 21 L/min
  Pre-BD Peak Flow change from baseline, Q1: 21 L/min
  Pre-BD Peak Flow change from baseline, Q3: 181 L/min
